# Where “and” joins values, the source holds several entries; their conditions need not be identical. Equal entries are not always repeated.
# Key:
# Type in all cases: in vivo
# [1] = tested on: 6C3HED lymphosarcoma (Gardner lymphosarcoma, GLS); assay: Antitumor activity in C3H mice bearing 6C3HED lymphosarcoma allograft, oral administration; conditions: for Percent Inhibition of tumor growth: tumor measured five days after treatment ended
# Source text: A third tumor model employed C3H mice bearing the widely used allograft 6C3HED lymphosarcoma, also known as the Gardner lymphosarcoma (GLS). The 6C3HED lymphosarcoma was obtained from the Division of Cancer Treatment, National Cancer Institute, Tumor Bank, maintained at E.G. and G. Mason Research (Worcester, Mass.).
# (§1) First passage tumors were stored in liquid nitrogen, using standard techniques. The transplanted tumor was reestablished from the Tumor Bank every six months or as needed. The tumor was maintained by serial passage twice weekly in the host mice.
# (§2) In the procedures utilized here, the tumor was removed from passage animals and minced into 1- to 3-mm cubic fragments using sterile techniques. Tumor pieces were checked for sterility using both Antibiotic Medium 1 and Brain Heart Infusion (Difco, Detroit, Mich.). The xenograft tumor pieces were implanted into the recipient CD1 Nu/Nu mice subcutaneously in an axillary site by trochar. The allograft 6C3HED tumor pieces were implanted into the recipient C3H mice in an analogous fashion.
# Drug therapy on the appropriate schedule was initiated seven days after tumor implantation. […] The total dosage volume for each administration was 0.5 ml. All animals were weighed at the beginning and end of administration of the subject compounds. Food and water were provided ad libitum.
# (§3) Each control group and each dosage level of the treated groups consisted of 9 or 10 mice selected at random from the pool of implanted animals. The formulations were administered orally by gavage with the use of an 18-gauge needle. Compounds were dosed daily for 10 days for the studies using the human tumor xenografts and 8 days for the studies using the allograft.
# The tumor was measured five days after treatment ended with two dimensional measurements (width and length) of the tumor taken using digital electronic calipers interfaced to a microcomputer. […] Tumor weights were calculated from these measurements using the following formula: [formula]
# [2] = tested on: HXGC3 human colon adenocarcinoma; assay: Antitumor activity in mice bearing HXGC3 human colon adenocarcinoma xenograft, oral administration; conditions: for Toxic/Total (mice which died relative to total in group): HXGC3, oral gavage daily for 10 days; for Percent Inhibition of tumor growth: po
# Source text: (§4) Two of the tumor models used for showing the anti-neoplastic activity of the sulfonylureas of this invention were the human colon xenografts, HXGC3 and VRC5. J. A. Houghton and D. M. Taylor, British Journal of Cancer, 37:213-223 (1978). These tumors were obtained from St. Jude's Children's Research Hospital and have been widely used as human tumor models.
# as §1, §2
# (§5) Drug therapy on the appropriate schedule was initiated seven days after tumor implantation. The compound being tested was mixed with 2.5% Emulphor EL620 from GAF Corporation (1:40 dilution in 0.9% saline). The total dosage volume for each administration was 0.5 ml. All animals were weighed at the beginning and end of administration of the subject compounds. Food and water were provided ad libitum.
# as §3
# (§6) The tumor was measured five days after treatment ended with two dimensional measurements (width and length) of the tumor taken using digital electronic calipers interfaced to a microcomputer. J. F. Worzalla, et Investigational New Drugs, 8:241-251 (1990). Tumor weights were calculated from these measurements using the following formula: [formula] At least one control group of an equal number of mice was treated with the same volume of 2.5% Emulphor only. The percent inhibition is determined by subtracting the ratio of the mean tumor size of the test group relative to the control group from one and multiplying the result by 100.
# (§7) The results of several experiments in mice bearing the HXGC3 and VRC5 human colon adenocarcinomas and the 6C3HED lymphosarcoma when the Formula I compounds were administered orally are provided in Table I. In the table, Column 1 refers to the example number of the compound tested; Column 2 describes the particular human tumor xenograft or mouse allograft being studied; Column 3 gives the dosage level of the compound of Formula I in milligrams per kilogram of body weight; Column 4 describes the percent inhibition of tumor growth; and Column 5 tallies the number of mice which died during the course of the experiment relative to the total number of animals in the group.
# [3] = tested on: VRC5 human colon adenocarcinoma; assay: Antitumor activity in mice bearing VRC5 human colon adenocarcinoma xenograft, oral administration; conditions: for Toxic/Total (mice which died relative to total in group): VRC5, oral gavage daily for 10 days; for Percent Inhibition of tumor growth: po
# Source text: as §4, §1, §2, §5, §3, §6, §7
# [4] = 6C3HED, 150 mg/kg, oral gavage daily for 8 days
# [5] = 6C3HED, 300 mg/kg, oral gavage daily for 8 days
# [6] = 6C3HED, 600 mg/kg, oral gavage daily for 8 days
# [7] = Mus musculus, 6C3HED, po, read-out: Percent Inhibition of tumor growth
smiles,measurement,setting,value
"CN(C)c1ccc(S(=O)(=O)NC(=O)Nc2ccc(Cl)cc2)cc1 [Example 1, N-[[(4-chlorophenyl)amino]carbonyl]-4-(dimethylamino)benzenesulfonamide]",Toxic/Total (mice which died relative to total in group),"[1]; 6C3HED, 37.5 mg/kg, oral gavage daily for 8 days",0/10
same,Toxic/Total (mice which died relative to total in group),"[1]; 6C3HED, 75 mg/kg, oral gavage daily for 8 days",0/10
same,Toxic/Total (mice which died relative to total in group),[1]; [4],0/10
same,Toxic/Total (mice which died relative to total in group),[1]; [5],0/10
same,Toxic/Total (mice which died relative to total in group),[1]; [6],10/10
same,Percent Inhibition of tumor growth,[1]; [6],Toxic
same,inhibition in vivo at 37.5 mg/kg,[1]; [7],80%
same,inhibition in vivo at 75 mg/kg,[1]; [7],99%
same,inhibition in vivo at 150 mg/kg,[1]; [7],100%
same,inhibition in vivo at 300 mg/kg,[1]; [7],100%
"CN(C)c1ccc(S(=O)(=O)NC(=O)Nc2ccc(Cl)c(Cl)c2)cc1 [Example 2, N-[[(3,4-dichlorophenyl)amino]carbonyl]-4-(dimethylamino)benzenesulfonamide]",Toxic/Total (mice which died relative to total in group),[2]; 150 mg/kg,0/10
same,Toxic/Total (mice which died relative to total in group),[2]; 300 mg/kg,0/10
same,Toxic/Total (mice which died relative to total in group),[2]; 600 mg/kg,1/10
same,Toxic/Total (mice which died relative to total in group),[2]; 1200 mg/kg,1/10
same,Percent Inhibition of tumor growth,[2]; 150 mg/kg,100%
same,Percent Inhibition of tumor growth,[2]; 300 mg/kg,100%
same,Percent Inhibition of tumor growth,[2]; 600 mg/kg,100%
same,Percent Inhibition of tumor growth,[2]; 1200 mg/kg,100%
same,Toxic/Total (mice which died relative to total in group),"[1]; 6C3HED, 20 mg/kg, oral gavage daily for 8 days",0/10
same,Toxic/Total (mice which died relative to total in group),"[1]; 6C3HED, 40 mg/kg, oral gavage daily for 8 days",0/10
same,Toxic/Total (mice which died relative to total in group),"[1]; 6C3HED, 80 mg/kg, oral gavage daily for 8 days",0/10
same,Toxic/Total (mice which died relative to total in group),"[1]; 6C3HED, 160 mg/kg, oral gavage daily for 8 days",0/10
same,inhibition in vivo at 20 mg/kg,[1]; [7],35%
same,inhibition in vivo at 40 mg/kg,[1]; [7],51%
same,inhibition in vivo at 80 mg/kg,[1]; [7],89%
same,inhibition in vivo at 160 mg/kg,[1]; [7],97%
same,Toxic/Total (mice which died relative to total in group),[3]; 150 mg/kg,0/10
same,Toxic/Total (mice which died relative to total in group),[3]; 300 mg/kg,0/10
same,Toxic/Total (mice which died relative to total in group),[3]; 600 mg/kg,1/10
same,Toxic/Total (mice which died relative to total in group),[3]; 1200 mg/kg,0/10
same,Percent Inhibition of tumor growth,[3]; 150 mg/kg,100%
same,Percent Inhibition of tumor growth,[3]; 300 mg/kg,100%
same,Percent Inhibition of tumor growth,[3]; 600 mg/kg,100%
same,Percent Inhibition of tumor growth,[3]; 1200 mg/kg,100%
"CN(C)c1cccc(S(=O)(=O)NC(=O)Nc2ccc(Cl)cc2)c1 [Example 4, N-[[(4-chlorophenyl)amino]carbonyl]-3-(dimethylamino)benzenesulfonamide]",Toxic/Total (mice which died relative to total in group),[1]; [4],0/10
same,Toxic/Total (mice which died relative to total in group),[1]; [5],0/10
same,inhibition in vivo at 150 mg/kg,[1]; [7],73%
same,inhibition in vivo at 300 mg/kg,[1]; [7],95%
"CCNc1ccc(S(=O)(=O)NC(=O)Nc2ccc(Cl)cc2)cc1 [Example 5, N-[[(4-chlorophenyl)amino]carbonyl]-4-(ethylamino)benzenesulfonamide]",Toxic/Total (mice which died relative to total in group),[1]; [5],0/10
same,inhibition in vivo at 300 mg/kg,[1]; [7],74%
"O=C(Nc1ccc(Cl)cc1)NS(=O)(=O)c1ccc(N2CCOCC2)cc1 [Example 6, N-[[(4-chlorophenyl)amino]-carbonyl]-4-(4-morpholinyl) benzenesulfonamide]",Toxic/Total (mice which died relative to total in group),[1]; [4],0/10
same,Toxic/Total (mice which died relative to total in group),[1]; [5],0/10
same,inhibition in vivo at 150 mg/kg,[1]; [7],17%
same,inhibition in vivo at 300 mg/kg,[1]; [7],38%
"O=C(Nc1ccc(Cl)cc1)NS(=O)(=O)c1ccc(N2CCCC2)cc1 [Example 7, N-[[(4-chlorophenyl)amino]-carbonyl]-4-(1-pyrrolidinyl) benzenesulfonamide]",Toxic/Total (mice which died relative to total in group),[1]; [4],0/10
same,Toxic/Total (mice which died relative to total in group),[1]; [5],0/10
same,inhibition in vivo at 150 mg/kg,[1]; [7],44%
same,inhibition in vivo at 300 mg/kg,[1]; [7],48%
"Nc1ccc(S(=O)(=O)NC(=O)Nc2ccc(Cl)c(Cl)c2)cc1 [Example 8, N-[[(3,4-dichlorophenyl)amino]-carbonyl]-4-(amino) benzenesulfonamide]",inhibition in vivo at 194 mg/kg,[1]; [7],34%
same,inhibition in vivo at 388 mg/kg,[1]; [7],29%
same,inhibition in vivo at 775 mg/kg,[1]; [7],100%
same,Toxic/Total (mice which died relative to total in group),"[1]; mouse, in vivo",1/10 and 0/10
CNc1ccc(S(=O)(=O)NC(=O)Nc2ccc(Cl)cc2)cc1 [Example 9],Toxic/Total (mice which died relative to total in group),[1]; [5],0/10
same,Percent Inhibition of tumor growth,[1]; [5],100%
same,Toxic/Total (mice which died relative to total in group),[1]; [6],0/10
same,Percent Inhibition of tumor growth,[1]; [6],100%
CNc1ccc(S(=O)(=O)NC(=O)Nc2ccc(Cl)c(Cl)c2)cc1 [Example 10],inhibition in vivo at 300 mg/kg,[1]; [7],100%
same,inhibition in vivo at 600 mg/kg,[1]; [7],100%
same,Toxic/Total (mice which died relative to total in group),"[1]; mouse, in vivo",2/10 and 0/10
CC(C)Nc1ccc(S(=O)(=O)NC(=O)Nc2ccc(Cl)c(Cl)c2)cc1 [Example 11],Toxic/Total (mice which died relative to total in group),[1]; [4],0/10
same,Percent Inhibition of tumor growth,[1]; [4],71%
same,Toxic/Total (mice which died relative to total in group),[1]; [5],1/10
same,Percent Inhibition of tumor growth,[1]; [5],96%
CCN(CC)c1ccc(S(=O)(=O)NC(=O)Nc2ccc(Cl)c(Cl)c2)cc1 [Example 12],Toxic/Total (mice which died relative to total in group),[1]; [4],0/10
same,Toxic/Total (mice which died relative to total in group),[1]; [5],0/10
same,inhibition in vivo at 150 mg/kg,[1]; [7],54%
same,inhibition in vivo at 300 mg/kg,[1]; [7],70%
